# Patent US20060167099A1, “Use of compositions that increase glutamate receptor activity in treatment of brain injury” (priority 2004, published 2006)
# Entries after “also recorded” stand apart in the source; their conditions may differ.
# Legend:
# NMDAR [1] = conditions: NMDA 20 mg/kg i.p. 1 and 2 days after CHI; assessed 7 and 14 days postinjury (P=0.05 and 0.016)
# Text: Trauma Model. We used 8- to 12-week-old male Sabra mice (30-35 g) kept under controlled temperature and light conditions with food and water available ad libitum. The study was approved by the Institutional Animal Care Committee of the Hebrew University. Experimental CHI was induced by using a modified weight-drop device developed in our laboratory (Chen et al., J. Neurotrauma 13, 557-568 (1996); Yatziv et al., J. Cereb. Blood Flow Metab. 22, 971-978 (2002)). Briefly, after induction of ether anesthesia, a midline longitudinal incision was performed, the skin was retracted and the skull was exposed. The left anterior frontal area was identified and a Teflon tipped cone (2-mm diameter) was placed 1 mm lateral to the midline, in the midcoronal plane. The head was held in place manually and a 75-g weight was dropped on the cone from a height of 18 cm, resulting in a focal injury to the left hemisphere. After trauma, the mice received supporting oxygenation with 95% O2 for no longer than 2 min and were then returned to their cages. […]
# (§1) Drug Treatments. […] The three groups were repeatedly evaluated for neurobehavioral deficits over a 2-week period (see below). […] Cognitive function was evaluated in head-injured and intact […] administered with either NMDA 20 mg/kg or saline 24 and again 48 h postinjury and tested 14 days later for performance in the object recognition test (see below).
# NMDAR [2] = test: Object recognition test 14 days after CHI; assay type: in vivo, mice; conditions: for Percent of exploration time at the novel object: 4 h after baseline; for Proportion of time exploring two objects at baseline: baseline with two identical objects
# Text: Trauma Model. We used 8- to 12-week-old male Sabra mice (30-35 g) kept under controlled temperature and light conditions with food and water available ad libitum. The study was approved by the Institutional Animal Care Committee of the Hebrew University. Experimental CHI was induced by using a modified weight-drop device developed in our laboratory (Chen et al., J. Neurotrauma 13, 557-568 (1996); Yatziv et al., J. Cereb. Blood Flow Metab. 22, 971-978 (2002)). Briefly, after induction of ether anesthesia, a midline longitudinal incision was performed, the skin was retracted and the skull was exposed. The left anterior frontal area was identified and a Teflon tipped cone (2-mm diameter) was placed 1 mm lateral to the midline, in the midcoronal plane. The head was held in place manually and a 75-g weight was dropped on the cone from a height of 18 cm, resulting in a focal injury to the left hemisphere. After trauma, the mice received supporting oxygenation with 95% O2 for no longer than 2 min and were then returned to their cages. Sham controls received anesthesia and skin incision only. For autoradiographic studies, groups of four to five animals per time point were killed 15 min, 1, 4, 8, or 24 h, or 7 days postinjury and brains were quickly removed and frozen on dry ice.
# as §1
# Evaluation of Performance in the Object Recognition Test. The object recognition test was performed as originally described by Ennaceur and Delacour (Ennaceur & Delacour, Behav. Brain Res. 31, 47-59 (1988)). In the first part of the test (14 days after CHI) mice were placed in the testing cage (a glass aquarium-like transparent box of 60×60 cm) for 1 h habituation. On the following day they were put back into the same cage with two identical objects. The cumulative time spent by the mouse at each of the objects was recorded manually during a 5-min interval by an observer blinded to the treatment received. Four hours later, the mice were reintroduced into the cage, where one of the two objects was replaced by a new one. The time (of 5 min total) spent at each of the objects was recorded. The basic measure is the percent of the total time spent by mice in exploring an object during the testing period, whereby normal healthy rodents will spend relatively more time exploring a new object than a familiar, i.e., “memorized” object.
# intact mice = test: NMDA dose-response experiment in intact mice (tolerability); conditions: i.p.
structure (smiles),measurement,setting,value
"CN[C@H](CC(=O)O)C(=O)O [NMDA, N-methyl-D-aspartate]",dNSS (extent of neurological recovery) compared to vehicle-treated CHI mice,NMDAR [1],significantly higher; also recorded: significantly accelerated
same,Object recognition performance compared to vehicle-treated CHI animals,"NMDAR [2]; CHI mice, NMDA 20 mg/kg 24 and 48 h postinjury, 14 days after CHI (P<0.0001)",significantly higher percentage; also recorded: significantly better
same,Percent of exploration time at the novel object,"NMDAR [2]; CHI mice, NMDA 20 mg/kg 24 and 48 h postinjury, tested 14 days after CHI",≈ 70%
same,Proportion of time exploring two objects at baseline,NMDAR [2]; CHI+NMDA group,≈ 50%
same,Effect on object recognition performance of intact (naive) animals,"NMDAR [2]; intact animals, NMDA 20 mg/kg",no effect
same,Percent of exploration time at the novel object,NMDAR [2]; intact mice treated with NMDA 20 mg/kg,≈ 70%
same,Proportion of time exploring two objects at baseline,NMDAR [2]; naive+NMDA group,≈ 50%
same,Doses at which significant mortality was observed,intact mice; doses tested between 20 and 100 mg/kg,above 60 mg/kg
same,Behavioural effects and mortality at the lowest dose,intact mice; lowest dose of 20-100 mg/kg range (20 mg/kg),hyperactivity and some stereotypy but no convulsions or mortality
